Columns and labels:
Assay type in all cases: cell-based
[1] = target: T1, human OCT2 (Homo sapiens, UniProt O15244); experiment: competition of [3H]-histamine uptake in transfected HEK293T cells; conditions: 2.5 uM [3H]-histamine, 30 min, 37 C, pH 7.4; competitor concentration for OCT2 not given
T1 construct: gene SLC22A2
T1 sequence (O15244 1-555): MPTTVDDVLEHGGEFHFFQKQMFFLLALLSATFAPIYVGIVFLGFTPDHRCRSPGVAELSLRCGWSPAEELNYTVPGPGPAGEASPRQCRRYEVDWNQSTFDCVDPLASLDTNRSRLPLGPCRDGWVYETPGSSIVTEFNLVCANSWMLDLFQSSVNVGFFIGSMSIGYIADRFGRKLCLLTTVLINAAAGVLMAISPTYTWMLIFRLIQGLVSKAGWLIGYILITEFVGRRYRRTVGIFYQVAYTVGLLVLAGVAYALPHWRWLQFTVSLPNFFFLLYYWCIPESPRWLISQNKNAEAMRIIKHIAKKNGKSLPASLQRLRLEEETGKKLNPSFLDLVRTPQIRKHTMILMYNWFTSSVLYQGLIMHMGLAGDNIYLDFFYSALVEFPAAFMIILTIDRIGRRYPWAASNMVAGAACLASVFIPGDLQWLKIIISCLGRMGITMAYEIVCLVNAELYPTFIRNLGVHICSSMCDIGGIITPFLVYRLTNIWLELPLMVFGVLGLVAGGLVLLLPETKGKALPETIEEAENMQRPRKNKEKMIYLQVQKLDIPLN

[2] = target: T2, HisT (CG1358) (Drosophila melanogaster, UniProt A0A0B4JD50); experiment: [3H]-histamine uptake in transfected HEK293T cells; conditions: labelled compound; 2.5 uM, 30 min, 37 C, pH 7.4, ECF buffer with 120 mM NaCl
T2 sequence (A0A0B4JD50 1-482): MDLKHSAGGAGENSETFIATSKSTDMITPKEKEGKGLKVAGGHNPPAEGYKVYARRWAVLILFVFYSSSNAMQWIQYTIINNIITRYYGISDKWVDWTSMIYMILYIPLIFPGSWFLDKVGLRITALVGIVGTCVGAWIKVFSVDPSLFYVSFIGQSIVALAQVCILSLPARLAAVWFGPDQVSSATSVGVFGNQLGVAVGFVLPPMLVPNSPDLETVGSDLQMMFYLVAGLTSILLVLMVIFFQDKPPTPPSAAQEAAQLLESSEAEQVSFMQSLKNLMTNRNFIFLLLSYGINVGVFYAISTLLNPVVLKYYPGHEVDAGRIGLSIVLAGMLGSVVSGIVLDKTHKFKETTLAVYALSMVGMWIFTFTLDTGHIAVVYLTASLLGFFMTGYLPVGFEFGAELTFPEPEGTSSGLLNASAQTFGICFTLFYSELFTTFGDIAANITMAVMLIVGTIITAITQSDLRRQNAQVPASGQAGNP

[3] = target: T1, human OCT2; experiment: [3H]-histamine uptake in transfected HEK293T cells; conditions: labelled compound; 2.5 uM, 30 min, 37 C, pH 7.4, ECF buffer with 120 mM NaCl

## NCCC(=O)NCCc1c[nH]cn1 [carcinine]
[1]
  inhibition of [3H]-histamine uptake: OCT2-mediated [^3H]-histamine uptake was completely blocked by dopamine, serotonin, and carcinine

## NCCc1ccc(O)c(O)c1 [dopamine]
[1]
  inhibition of [3H]-histamine uptake: OCT2-mediated [^3H]-histamine uptake was completely blocked by dopamine, serotonin, and carcinine

## NCCc1c[nH]cn1 [histamine]
[2]
  [3H]-histamine uptake in transfected HEK293T cells: is the only transporter exhibiting histamine uptake activity in vitro
[3]
  [3H]-histamine uptake in transfected HEK293T cells: OCT2), which mediates the low-affinity transport of some monoamine neurotransmitters including histamine

## NCCc1c[nH]c2ccc(O)cc12 [serotonin]
[1]
  inhibition of [3H]-histamine uptake: OCT2-mediated [^3H]-histamine uptake was completely blocked by dopamine, serotonin, and carcinine
